This is an account of results in PubChem BioAssay AID179 (DTP/NCI, 2004).

The experiment concerns CEM cells HIV-1 protection, formazan growth assay. Description: NCI AIDS Antiviral Assay. The note with it: for IC50: measured here: growth of uninfected CEM cells. The procedure, abridged: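 CEM (human) cells, HIV-1 infected vs uninfected, 5-point dosing, formazan growth read-out. Retest threshold 50% protection.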

Where “and” joins values, the source holds several entries; their conditions need not be identical. Equal values may be shown once. Calls of active or inactive are those of the source.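 How the source made its calls: active means compounds giving half or more protection of infected cells from virus-caused growth loss, again on retest; inactive means the rest.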

What is called EC50 is the concentration that produces a half-maximal response. In general, IC50 refers to the concentration that inhibits the measured activity by half. A lower IC50 goes with greater potency. The compound `COc1c2c(c(O)c3c4c(c(C)cc13)C1OC3(C(OC)OC5CC(C)(O)C(OC6CC(C)(O)C(O)C(C)O6)C(C)O5)OC1C(OC)(O4)C31CO1)C(=O)C(O)CC2OC1CC(C)(O)C(OC(C)=O)C(C)O1` (centres undefined) came in with an EC50 of over 26.3 µM and an IC50 of 0.00832 µM.
Taken in the same sequence, the figures for `C/C(C=C(C#N)C#N)=C\c1cccc(F)c1` were over 123 µM and 14.1 µM.
Taken in the same sequence, the figures for `OC[C@@H](O)[C@H](O)[C@H](O)[C@@H](O)C1SCCCS1` were over 200 µM and over 200 µM.
The like results for `CCCCCC=C(c1cc(Cl)c(OC)c(C(=O)OCCC)c1)c1cc(Cl)c(OC)c(C(=O)OCCC)c1` were, in that order, over 12.3 µM and over 12.3 µM.
For `CCOC(=O)N/N=C/c1cccs1`, the EC50 was over 200 µM and the IC50 was over 200 µM.
Turning to `c1ccc(C2CN3CCSC3=N2)cc1` (centres undefined), the EC50 is over 200 µM and the IC50 is over 200 µM.
As to `CC(C)(C)C(=O)N(C(=S)OCc1ccccn1)c1ccccc1`, the EC50 was over 200 µM and the IC50 amounted to 40.7 µM.
Taken in the same sequence, the figures for `N#Cc1cnn2c1n[n+]([O-])c1ccc(Cl)cc12` were over 100 µM and 7.76 µM.
For the compound `N#CC(NNC(=O)c1ccccc1O)c1cccc(O)c1` (centres undefined), the EC50 was over 6.31 µM and the IC50 was found to be 0.562 µM.
Taken in the same sequence, the figures for `O=C(NCCCNCCN1C(=O)c2cccc3cc([N+](=O)[O-])cc(c23)C1=O)c1cc(-c2ccccc2)nc2ccccc12` were over 200 µM and 1.05 µM.
Taken in the same sequence, the figures for `Cc1cn(C2C=CC(CO)O2)c(=O)[nH]c1=O` (centres undefined) were 1.62 µM and 186 µM.
Taken in the same sequence, the figures for `Cc1cc(S(=O)(=O)O)c(NC(=O)c2oc3cc(O)ccc3c(=O)c2C)cc1Cl` were over 589 µM and over 589 µM.
For `C[C@@H]1S[C@H](c2c(F)cccc2F)n2c1nc1ccccc12`, the 50% effective concentration (EC50) was 29.5 µM and the half-maximal inhibitory concentration (IC50) turned out to be 43.7 µM.
Taken in the same sequence, the figures for `COc1ccc(N2C(=O)C3c4[nH]c5ccccc5c4C4CCC(C(C)(C)C)CC4C3C2=O)c(C)c1` (centres undefined) were over 200 µM and over 200 µM.
In the case of `O[C@H]1[C@@H](O)C2(C[C@@H]1Br)OC(COCc1ccccc1)[C@@H](COCc1ccccc1)O2` (some centres undefined), the result was inactive.
For the compound `C=C1C(=O)O[C@H]2C1C(OC(=O)/C(C)=C/C)C(OC(C)=O)[C@@](C)(O)C1C2C(C)=C[C@H]1OC(C)=O` (some centres undefined), the EC50 is over 141 µM and the IC50 worked out at 6.17 µM.
The like results for `CC(C)(NC(=O)c1ccccc1SC(=O)CCCC[n+]1ccccc1)C(N)=O` were, in that order, 1 µM and 50.1 µM.
The like results for `FC(F)(F)C1(C(F)(F)F)OC(Cl)(Cl)C(Cl)(Cl)O1` were, in that order, over 200 µM and over 200 µM.
The like results for `CC(=O)N1CCN(CCCCN2c3ccccc3Sc3cc(N=[N+]=[N-])ccc32)CC1` were, in that order, over 200 µM and 6.61 µM.
Regarding `O=C(c1ccccc1)N1OC12CCCCC2`, the EC50 is over 200 µM and the IC50 came to 51.3 µM.
Taken in the same sequence, the figures for `O=c1[nH]nc(-c2ccccc2)c(-c2ccccc2)c1-n1nc(-c2ccccc2)c2ccccc2c1=O` were over 10.7 µM and over 10.7 µM.
Regarding `CC(=O)NC(C(=O)O)C(C)(C)SN=O` (centres undefined), the EC50 was over 1120 µM and the IC50 was 240 µM.
Taken in the same sequence, the figures for `CN(C)CCNc1ccc2ncnc3c2c1C(=O)c1ccccc1-3` were over 1 µM and 0.219 µM.
Regarding `O=C1CC(c2ccc(O)cc2)Oc2cc(O)cc(O)c21` (centres undefined), the EC50 is over 200 µM; the IC50 is > 100 µM and 87.1 µM.
On to `C#CCNC(=O)NCCCC(NC(C)=O)C(=O)NCc1ccccc1` (centres undefined), for which the outcome was inactive.
Regarding `CN(C)N=Nc1ccc(S(N)(=O)=O)cc1`, the EC50 is over 295 µM and the IC50 is 37.2 µM.
Taken in the same sequence, the figures for `O=c1[nH]c(=O)c2[nH]c(=O)[nH]c(=O)c2[nH]1` were over 200 µM and over 200 µM.
The like results for `CS(=O)(=O)c1ccc(-c2cc(-c3ccc(S(C)(=O)=O)cc3)[n+](-c3cc(-c4ccccc4)c([O-])c(-c4ccccc4)c3)c(-c3ccc(S(C)(=O)=O)cc3)c2)cc1` were, in that order, over 692 µM and over 692 µM.
The like results for `Cc1ccc(NC(=O)CCc2n[nH]c(=S)o2)cc1` were, in that order, over 5.5 µM and over 5.5 µM.
For the compound `CC(=O)[CH-]C(C)=O.CC(=O)[CH-]C(C)=O.N=CC=N.[Sn+2]`, the EC50 was over 69.2 µM and the 50% inhibitory concentration (IC50) amounted to 1.45 µM.
The like results for `COc1ccc(Cc2c3cc(OC)c(OC)cc3cc[n+]2C)cc1` were, in that order, over 550 µM and 107 µM.
Take `C=C1CC(CC)(CCN2C(=O)c3ccccc3C2=O)OC1=O` (centres undefined): the EC50 is over 209 µM and the IC50 was 10.5 µM.
As to `C=C(C)[C@H]1CC[C@@]2(C)C(C1)[C@H](C)CC[C@@H]2O` (some centres undefined), the result was inactive.
In the case of `N#CC12COC3(CCCCC3C1(C#N)C#N)OC2=N` (centres undefined), the EC50 was over 200 µM and the IC50 came to 3.98 µM.
Taken in the same sequence, the figures for `N#Cc1cc(Sc2ccc(N)c(C#N)c2)ccc1N` were over 200 µM and 11 µM.
The like results for `C=c1[nH]c(=O)c(=C)[nH]c1=O` were, in that order, over 72.4 µM and 26.3 µM.
Taken in the same sequence, the figures for `Oc1ccc[n+](Cc2ccccc2)c1` were over 200 µM and over 200 µM.
For the compound `COc1ncc(/C=C2\OC(=O)c3ccccc32)c(OC)n1`, the EC50 is over 200 µM and the IC50 is over 200 µM.
On to `O=S(=O)(N1CCCCN(S(=O)(=O)C(F)(F)F)CCCN(S(=O)(=O)C(F)(F)F)CCCCN(S(=O)(=O)C(F)(F)F)CCCN(S(=O)(=O)C(F)(F)F)CCCCN(S(=O)(=O)C(F)(F)F)CCCN(S(=O)(=O)C(F)(F)F)CCCCN(S(=O)(=O)C(F)(F)F)CCC1)C(F)(F)F`, for which the EC50 is over 200 µM and the IC50 is over 200 µM.
Consider `CCCS(=O)OC1C(C2COC(C)(C)O2)OC2OC(C)(C)OC21` (centres undefined), for which the EC50 was over 200 µM and the IC50 was determined as 95.5 µM.
The like results for `CN1CNc2nc(N)n(C)c(=O)c2C1` were, in that order, over 200 µM and over 200 µM.
The like results for `O=[N+]([O-])c1c(Br)cc(Br)c2c1Nc1c(ccc(Cl)c1Cl)S2` were, in that order, over 200 µM and 4.9 µM.
The like results for `N#CC1=C(N)Oc2c(ccc3cccnc23)C1c1ccccc1` (centres undefined) were, in that order, over 120 µM and 1.7 µM.
Consider `C=C1CCC[C@@H]2[C@@](C)(Cc3cc(O)ccc3O)C(C)CC[C@]12C` (some centres undefined), for which the EC50 was over 60.3 µM and the IC50 is 0.708 µM.
The like results for `O=C1CC23CC(=O)CC2(C1)c1ccccc1C3=O` (centres undefined) were, in that order, over 389 µM and over 389 µM.
For `NC(CSS(=O)(=O)O)=NCc1cccs1`, the EC50 is over 200 µM and the IC50 was over 100 µM.
Taken in the same sequence, the figures for `CCC(C)C(=O)c1c(O)c(C/C=C(\C)CCC=C(C)C)c(O)c2c(C(O)CC)cc(=O)oc12` (centres undefined) were over 200 µM and 1.55 µM.
Taken in the same sequence, the figures for `N#CC(C#N)=C(N)/C(C#N)=C/c1ccc(O)c(O)c1` were over 200 µM and 61.7 µM.
Taken in the same sequence, the figures for `CCC1=C(CC)C1(C#N)[N+](=O)[O-]` were over 251 µM and over 251 µM.
For the compound `Brc1ccc(-c2nnc(-c3nn(-c4ccccc4)c4nc5ccccc5nc34)o2)cc1`, the EC50 was over 8.13 µM and the 50% inhibitory concentration (IC50) is over 8.13 µM.
In the case of `CCCC(CCN)(CCN)[N+](=O)[O-]`, the EC50 was over 200 µM and the IC50 was over 200 µM.
